Reference: patent publication US6808924B1, “Mouse mammary tumor lines expressing estrogen and progesterone receptors” (priority 2000, dated 2004)

Columns and labels:
MC4-L2 cell line = test: In vitro hormone response, 3H-thymidine uptake, MC4-L2; assay type: cell-based, mouse
Method: (§1) 3H-Thymidine uptake: In a 96 well microplate, 0.1 ml/well of a cell suspension were seeded in EM at a concentration of 10^5 cell/ml. After attachment (24 hs), the cells were incubated for 72 hs with the experimental solutions to be tested. Half the media was changed every 24 hs. The cells were incubated with 0.4 μCi of ^3H-thymidine (specific activity: 20 Ci/mmol) for 24 hs, trypsinized and harvested in a cell harvester. Filters were counted in a liquid scintillation counter. Assays were performed in octuplicates and mean and standard deviation were calculated for each solution tested. The difference between controls and experimental groups were analyzed by ANOVA followed by Dunnet's t test between groups.

MC7-L1 cell line = test: In vitro hormone response, 3H-thymidine uptake, MC7-L1; assay type: cell-based, mouse; parameters: In vitro proliferative response: key to the marks not given beside the values
Method: as §1

MC4-L3 cell line = test: In vitro hormone response, 3H-thymidine uptake, MC4-L3; assay type: cell-based, mouse
Method: as §1

MC4-L1 cell line = test: In vitro hormone response, 3H-thymidine uptake, MC4-L1; assay type: cell-based, mouse
Method: as §1

MC7-L1 tumors = test: In vivo hormone response, MC7-L1 tumors in BALB/c female mice; parameters: species or system mouse; settings: for effect on tumor size (tumor regression): MC7-L1 tumors, ZK 10 mg/Kg or RU 6.5 mg/Kg daily sc, E2 5 mg silastic pellet sc
Method: (§2) Cells were trypsinized and resuspended in 10 fold excess of culture medium and 10% FCS. After centrifugation cells were resuspended in serum-free medium and […] were injected sc in a final volume of 0.1 ml using a 21 gauge needle in the right inguinal flank of BALB/c mice which have been inoculated contralaterally with 40 mg MPA depot (Gador Laboratories, Buenos Aires). The mice were examined every three days for the development of palpable tumors. At the end of the experiment the animals were killed and the tumors excised. Complete autopsies were performed to detect the presence of metastases. Animal care was in agreement with institutional guidelines. Cells from different lines were inoculated into BALB/c female mice treated or not with MPA as described previously. If tumors grew similarly in treated and untreated animals, the tumors growing in untreated mice were used for the next passage. Tumors were transplanted by trocar sc in the right inguinal flank of 2 month old, BALB/c female mice. Hormone treatments were initiated when the tumors reached around 50 mm2. RU (6.5 mg/Kg body weight) and ZK (10 mg/Kg body weight) were inoculated as daily sc injections. E2 was administered as 5 mg silastic pellets implanted sc. Tumor growth was measured every 2-3 days.

MC4-L1 tumors = test: In vivo hormone response, MC4-L1 tumors in BALB/c female mice; parameters: species or system mouse; settings: for effect on tumor size (tumor regression): MC4-L1 tumors about 50 mm2, no MPA, ZK 10 mg/Kg or RU 6.5 mg/Kg daily sc, E2 5 mg silastic pellet sc
Method: as §2

MC4-L3 tumors = test: In vivo hormone response, MC4-L3 tumors in BALB/c female mice; parameters: species or system mouse; settings: for effect on tumor size (tumor regression): MC4-L3 tumors about 50 mm2, ZK 10 mg/Kg or RU 6.5 mg/Kg daily sc, E2 5 mg silastic pellet sc
Method: as §2

MC4-L2 tumors = test: In vivo hormone response, MC4-L2 tumors in BALB/c female mice; parameters: species or system mouse
Method: as §2

[1] = test system: C4-HD primary and secondary cultures; settings: primary and secondary cultures of C4-HD (Dran G. et al. 1995); cited from earlier work
[2] = MC4-L1, early passages (before passage number 16)

For `C[C@]12CC[C@@H]3c4ccc(O)cc4CC[C@H]3[C@@H]1CC[C@@H]2O` [E2, estradiol], the “In vitro proliferative response” value (MC4-L2 cell line; MC4-L2, Table 2 grade) was “+”, the “concentration at which the higher values of proliferation were obtained” value (MC7-L1 cell line; MC7-L1) was “about 1 nM” and the “In vitro proliferative response” value (MC7-L1 cell line; MC7-L1, Table 2 grade) was “++”. For the same molecule, the “In vitro proliferative response” value (MC4-L3 cell line; MC4-L3, Table 2 grade) was “−”, the “In vitro proliferative response” value (MC4-L1 cell line; MC4-L1, Table 2 grade) was “±” and the “effect on tumor size (tumor regression)” value (MC7-L1 tumors) was “not inhibited”.

For `CC#C[C@]1(O)CC[C@H]2[C@@H]3CCC4=CC(=O)CCC4=C3[C@@H](c3ccc(N(C)C)cc3)C[C@@]21C` [RU, mifepristone], the “effect on cell proliferation (3H-thymidine uptake)” value (MC4-L2 cell line; MC4-L2) was “did not induce any change”, the “effect on tumor size (tumor regression)” value (MC4-L1 tumors) was “Only animals treated with ZK showed tumor regression” and the “effect on tumor size (tumor regression)” value (MC4-L3 tumors) was “Complete regression”. For the same molecule, the “effect on cell proliferation (3H-thymidine uptake)” value (MC7-L1 cell line; MC7-L1, about 0.1 to about 1 μM) was “stimulatory effect”, the “effect on cell proliferation (3H-thymidine uptake)” value (MC4-L1 cell line; [2]) was “agonist effect” and the “effect on tumor size (tumor regression)” value (MC4-L2 tumors; MC4-L2 tumors about 50 mm2, RU 6.5 mg/Kg daily sc) was “complete regression”. For the same molecule, the “effect on tumor size (tumor regression)” value (MC7-L1 tumors) was “not inhibited”.

In the case of TGFβ1: TGFβ1, the “effect on thymidine uptake” value (MC7-L1 cell line; MC7-L1) is reported as “had no effects”, the “effect on cell proliferation (3H-thymidine uptake)” value (MC4-L3 cell line; MC4-L3) is reported as “inhibited” and the “effect on cell proliferation (3H-thymidine uptake)” value (MC4-L1 cell line; MC4-L1, later passages) is reported as “significant inhibition of cell growth”.

For `CN(C)c1ccc([C@H]2C[C@]3(C)[C@@H](CC[C@]3(O)CCCO)[C@@H]3CCC4=CC(=O)CCC4=C32)cc1` [ZK, onapristone], the “effect on cell proliferation (3H-thymidine uptake)” value (MC4-L2 cell line; MC4-L2, about 0.1 to about 1 uM) was “in some experiments showed an inhibitory effect”, the “effect on tumor size (tumor regression)” value (MC4-L1 tumors) was “showed tumor regression” and the “effect on tumor size (tumor regression)” value (MC4-L3 tumors) was “Complete regression”. The “effect on thymidine uptake” value (MC7-L1 cell line; MC7-L1) was “did not modify thymidine uptake”, the “effect on cell proliferation (3H-thymidine uptake)” value (MC4-L1 cell line; MC4-L1, μM concentrations) was “stimulated cell proliferation” and the “effect on tumor size (tumor regression)” value (MC7-L1 tumors) was “not inhibited”.

In the case of `CC(=O)O[C@]1(C(C)=O)CC[C@H]2[C@@H]3C[C@H](C)C4=CC(=O)CC[C@]4(C)[C@H]3CC[C@@]21C` [MPA, medroxyprogesterone acetate], the “effect on cell proliferation” value [1] is listed as “stimulates directly cell proliferation”, the “effect on cell proliferation (3H-thymidine uptake)” value (MC4-L2 cell line; MC4-L2, 0.1 nM to about 10 nM) is listed as “significant stimulatory effect” and the “MPA dependence of tumor growth” value (MC4-L1 tumors; MC4-L1 inoculated sc, mice treated or not with 40 mg MPA depot sc) is listed as “same pattern of growth that was observed in the parental tumor line”. The “MPA dependence of tumor growth” value (MC4-L1 tumors; MC4-L1 subculture 70, 3rd passage) was “MPA-dependent”, the “MPA dependence of tumor growth” value (MC4-L1 tumors; MC4-L1 subculture 70, next passage) was “growth was favored” and the “MPA dependence of tumor growth” value (MC4-L3 tumors; MC4-L3, MPA-treated vs non-treated mice) was “PD pattern”. For the same molecule, the “effect on cell growth (3H-thymidine uptake)” value (MC7-L1 cell line; MC7-L1, about 1 nM to about 1 uM) was “significantly stimulates cell growth”, the “effect on cell proliferation (3H-thymidine uptake)” value (MC4-L1 cell line; [2]) was “stimulatory effect” and the “effect on cell proliferation (3H-thymidine uptake)” value (MC4-L1 cell line; MC4-L1, later passages) was “only evident (p<0.05) with uM concentrations”. The “MPA dependence of tumor growth” value (MC4-L2 tumors; MC4-L2, MPA-treated vs non-treated mice) was “PI pattern of growth” and the “MPA dependence of tumor growth” value (MC7-L1 tumors; MC7-L1, MPA-treated vs non-treated mice) was “PI pattern of growth”.
